Tests used:
[1] = tested on: RGC-5 (rat ganglion cell-5); assay: Retinal neuron protection under necroptosis inducing (TCZ; TNFα+cycloheximide+zVAD) condition, LDH assay; format: cell-based; settings: RGC-5, TCZ 15 hours, compound 20 μM, DMSO control = 100%
Method: The following experiment was performed to evaluate the retinal neuron protection effect of the compounds of the invention under necroptosis inducing condition.
The retinal ganglion cell line RGC-5 (rat ganglion cell-5) was cultured in DMEM (Dulbecco's modified Eagle's medium) supplemented with 10% FBS (fetal bovine serum) and 1% penicillin/streptomycin. The cells were distributed in a 96-well plate at the density of 8×10^3 cells/well, followed by culture in a 37° C., CO2 incubator for 12 hours. The medium supplemented with TNFα (10 ng/ml), cycloheximide (10 μg/ml), and zVAD (10 μM) (TCZ) was treated with DMSO (0.1%) alone (control) or with the compounds of the invention (20 μM), followed by additional culture in a 37° C., CO2 incubator for 15 hours to induce cell death.
The level of cell death was measured by LDH (lactate dehydrogenase, Roche) assay. The level of the control LDH under TCZ condition was regarded as 100%, and the level of LDH in the cell group cultured in normal medium (10% FBS, DMEM) for the same time was used for the measurement of the relative rate of cell death. The compounds of examples of the invention were treated to wells, each compound for three wells, and then each experiment was performed in triplicate.

[2] = tested on: RGC-5 (rat ganglion cell); assay: Retinal nerve protection under oxygen-glucose deprivation (OGD), LDH assay; format: cell-based; settings: RGC-5, OGD 15 hours, compound 20 μM, DMSO control = 100%
Method: The following experiment was performed to evaluate the protective effect of the compounds of examples of the invention on the retinal nerve under oxygen-glucose deprivation condition.
The retinal ganglion cell line RGC-5 (rat ganglion cell) was cultured in DMEM (Dulbecco's modified Eagle's medium) supplemented with 10% FBS (fetal bovine serum) and 1% penicillin/streptomycin. The cells were distributed in a 96-well plate at the density of 8×10^3 cells/well, followed by culture in a 37° C., CO2 incubator for 12 hours. The cells were washed with PBS once and the medium was replaced with glucose free DMEM. The cells were treated with either DMSO (0.1%) alone (control) or with the compounds of examples (20 μM) shown in Table 3, followed by culture in an anaerobic incubator (10% H2, 5% CO2, 85% N2, 37° C., chamber (ThermoForma, USA)) for 15 hours to induce cell death.
The level of cell death was measured by LDH (lactate dehydrogenase, Roche) assay. The LDH assay is a method for measuring the activity of LDH released from the damaged cells into the culture medium. NAD^+ was reduced to NADH and H^+ by LDH, and the bond of tetrazolium salt INT ring was cleaved by diaphorase to form formazan. Absorbance of the formazan was measured at 490 nm by using Victor 3 (PerkinElmer). The absorbance reflects the amount of dead cells.
The level of the control LDH under oxygen-glucose deprivation condition was regarded as 100%, and the level of LDH in the cell group cultured in normal medium (10% FBS, DMEM) for the same time was regarded as 0%. Based on that, the levels of LDH of the cell groups treated with the compounds of the invention under oxygen-glucose deprivation condition were converted into the relative ratio of cell death. The compounds of examples of the invention were treated to wells, each compound for three wells, and then each experiment was performed in triplicate.

[3] = molecular target: RIPK1 (receptor-interacting serine/threonine-protein kinase 1) (Homo sapiens (Human), UniProt Q13546); assay: RIPK1 inhibitory activity, autophosphorylation of immuno-precipitated RIPK1 with [32P]γ-ATP; format: biochemical; settings: for activity at 100 µM: compound 100 μM, remaining RIPK1 phosphorylation; for inhibition at 100 µM: Table 2, 100 μM
Chain of RIPK1 (receptor-interacting serine/threonine-protein kinase 1) (Q13546 whole entry, species assumed): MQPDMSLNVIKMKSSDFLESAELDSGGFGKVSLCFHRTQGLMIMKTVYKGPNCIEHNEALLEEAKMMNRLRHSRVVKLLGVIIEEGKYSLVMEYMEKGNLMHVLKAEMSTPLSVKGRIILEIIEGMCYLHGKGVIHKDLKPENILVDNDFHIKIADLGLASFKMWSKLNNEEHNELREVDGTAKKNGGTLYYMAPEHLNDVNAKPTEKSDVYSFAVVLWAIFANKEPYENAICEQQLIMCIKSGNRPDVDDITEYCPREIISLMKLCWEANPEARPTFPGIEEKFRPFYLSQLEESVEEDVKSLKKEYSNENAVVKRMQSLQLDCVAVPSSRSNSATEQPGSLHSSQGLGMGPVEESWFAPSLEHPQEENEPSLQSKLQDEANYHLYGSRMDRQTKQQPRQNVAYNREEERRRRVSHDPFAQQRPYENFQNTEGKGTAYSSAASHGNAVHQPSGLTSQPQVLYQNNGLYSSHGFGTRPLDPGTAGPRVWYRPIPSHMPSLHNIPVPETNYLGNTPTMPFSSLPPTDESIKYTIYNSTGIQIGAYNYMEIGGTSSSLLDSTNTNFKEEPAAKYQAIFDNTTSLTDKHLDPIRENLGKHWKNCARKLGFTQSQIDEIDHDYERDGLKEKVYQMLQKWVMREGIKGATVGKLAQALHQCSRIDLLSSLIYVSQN
Method: The following experiment was performed to evaluate RIPK1 (receptor-interacting serine/threonine-protein kinase 1) inhibitory activity of the compounds of examples of the invention.
RIPK1 enzyme immuno-precipitated in HEK293 (Human Embryonic Kidney 293) cell lysate was used as kinase. The experiment was performed according to the method described in Cell. 12; 137(6):1112-23(2009). RIPK1 protein was over-expressed in HEK293 cell line, to which lysis buffer (50 mM Tris-Cl [pH 8.0], 150 mM NaCl, 1 mM EDTA, 1% NP-40, 0.4 mM phenylmethylsulfonyl fluoride (PMSF)) was added for cell lysis. Centrifugation was performed at 13,000 rpm for 10 minutes to separate the supernatant. RIPK1 monoclonal antibody (610459, BD Bioscience) and A/G agarose beads (sc-2003, Santa Cruz Biotechnology) were added thereto, followed by immuno-precipitation in a 4° C. rotator for 12 hours.
The immune complex was washed with lysis buffer twice and then washed with kinase assay buffer (20 mM HEPES [pH7.6], 2 mM DTT, 1 mM NaF, 1 mM Na3Vo4, 20 mM β-glycerophosphate, 20 mM PNPP, 20 mM MgCl2, 20 mM MnCl2, 1 mM Benzamidie, and 1 mM EDTA) lastly. Kinase assay buffer and the compound were added to the RIPK1 immuno-precipitate, followed by reaction in a 24° C. constant-temperature water bath for 15 minutes. Additional reaction was induced for 30 minutes at 30° C. after 100 μM of ATP and 10 μCi[^32P] γ-ATP were added thereto. The reaction mixture was washed with kinase assay buffer once, to which protein loading buffer was added, followed by heating at 100° C. for 3 minutes. The reaction mixture was then loaded on 8% SDS-PAGE gel. Radioactive image of the phosphorylated RIPK1 was detected with FLA-7000 (GE healthcare). The image Quant TL program was used for the quantification.

| activity at 100 µM [3] [%] | inhibition at 100 µM [3] [%] | SMILES | Death of retinal nerve cell (%) [1] [%] | Death of retinal nerve cell (%) [2] [%] |
| --- | --- | --- | --- | --- |
| 67 | – | O=C(c1cc2cccc(-c3ccc(F)cc3)c2s1)N1CCOCC1 [Example 65, (7-(4-fluorophenyl)benzo[b]thiophene-2-yl)(morpholino)methanone] | 77.8 ± 9.6 | 79.6 ± 5.5 |
| 52 ± 2.8 | – | O=C(c1cc2c(Br)cncc2s1)N1CCOCC1 [Example 3, (4-bromothieno[2,3-c]pyridine-2-yl)(morpholino)methanone] | 79.6 ± 3.2 | – |
| 85.6 ± 26.7 | – | O=C(c1cc2ccccc2o1)N1CCOCC1 [Example 15, benzofuran-2-yl(morpholino)methanone] | 72.6 ± 6.8 | 42.7 ± 2.0 |
| 52 ± 17.1 | – | COc1ccc2[nH]c(C(=O)N3CCOCC3)nc2c1 [Example 24, (5-methoxy-1H-benzo[d]imidazole-2-yl)(morpholino)methanone] | 66.6 ± 9.9 | 76.4 ± 13.4 |
| 86 ± 17 | – | Cc1ccc2cc(C(=O)N3CCOCC3)oc2c1 [Example 27, (6-methylbenzofuran-2-yl)(morpholino)methanone] | 86.1 ± 1.3 | 53.7 ± 9.1 |
| 81.4 ± 29.3 | – | COc1ccc2oc(C(=O)N3CCOCC3)cc2c1 [Example 26, (5-methoxybenzofuran-2-yl)(morpholino)methanone] | 75.9 ± 15.1 | 48.6 ± 6.5 |
| 87.1 ± 17.7 | – | Fc1ccc(-c2cccc3sc(CN4CCOCC4)cc23)cc1 [Example 7, 4-((4-(4-fluorophenyl)benzo[b]thiophene-2-yl)methyl)morpholine] | 63.2 ± 3.9 | 90.0 ± 3.3 |
| 69 ± 24.5 | – | O=C(c1nc2ccccc2[nH]1)N1CCOCC1 [Example 23, (1H-benzo[d]imidazole-2-yl)(morpholino)methanone] | 69.2 ± 4.2 | 45.6 ± 3.6 |
| 52.5 ± 7.8 | – | O=C(c1cc2c(Br)cnc(Cl)c2s1)N1CCOCC1 [Example 1, (4-bromo-7-chlorothieno[2,3-c]pyridine-2-yl)(morpholino)methanone] | 79.3 ± 3.2 | – |
| 65 ± 32.5 | – | O=C(c1cc2c(NS(=O)(=O)c3ccc(F)cc3)cccc2s1)N1CCOCC1 [Example 70, 4-fluoro-N-(2-(morpholine-4-carbonyl)benzo[b]thiophene-4-yl)benzenesulfonamide] | – | 48.7 ± 10.3 |
| 85.2 ± 3.5 | – | O=C(c1cc2c(-c3ccc(-c4ccccc4)cc3)cccc2s1)N1CCOCC1 [Example 31, (4-(biphenyl-4-yl)benzo[b]thiophene-2-yl)(morpholino)methanone] | – | 81.2 ± 8.3 |
| 86.7 ± 34.6 | – | O=C(c1cc2c(-c3ccc(OC(F)(F)F)cc3)cccc2s1)N1CCOCC1 [Example 45, morpholino(4-(4-(trifluoromethoxy)phenyl)benzo[b]thiophene-2-yl)methanone] | – | 89.4 ± 14.0 |
| 35.5 ± 3.9 | ≥ 50 | Nc1cccc(-c2cccc3sc(C(=O)N4CCOCC4)cc23)c1 [Example 42, (4-(3-aminophenyl)benzo[b]thiophene-2-yl)(morpholino)methanone] | – | 57.2 ± 11.2 |
| 22.5 ± 16.3 | ≥ 50 | CN(c1ccc(F)cc1)c1cccc2sc(C(=O)N3CCOCC3)cc12 [Example 69, (4-((4-fluorophenyl)(methyl)amino)benzo[b]thiophene-2-yl)(morpholino)methanone] | – | 69.4 ± 10.9 |
| 70 ± 4.2 | – | O=C(c1cc2c(-c3ccc(F)cc3)ccc(Cl)c2s1)N1CCOCC1 [Example 53, (7-chloro-4-(4-fluorophenyl)benzo[b]thiophene-2-yl)(morpholino)methanone] | – | 59.9 ± 9.7 |
| 77 ± 12.5 | – | CCN(CC)C(=O)c1cccc2sc(C(=O)N3CCOCC3)cc12 [Example 20, N,N-diethyl-2-(morpholine-4-carbonyl)benzo[b]thiophene-4-carboxamide] | – | 43.6 ± 8.5 |
| 84.7 ± 6.4 | – | O=C(c1cc2c(-c3cccc(-c4ccccc4)c3)cccc2s1)N1CCOCC1 [Example 41, (4-(biphenyl-3-yl)benzo[b]thiophene-2-yl)(morpholino)methanone] | – | 58.3 ± 6.5 |
| 88.5 ± 16.3 | – | O=C(O)C1COCCN1C(=O)c1cc2c(-c3ccc(F)cc3)cccc2s1 (stereo not shown) [Example 8, 4-(4-(4-fluorophenyl)benzo[b]thiophene-2-carbonyl)morpholine-3-carboxylic acid] | – | 52.3 ± 11.1 |
| 11.5 ± 4.9 | – | Cl.O=C(c1cc2c(-c3ccc(F)nc3)cccc2s1)N1CCOCC1 [Example 66, (4-(6-fluoropyridine-3-yl)benzo[b]thiophene-2-yl)(morpholino)methanone hydrochloride] | – | 45.2 ± 10.5 |
| 54.5 ± 37.5 | – | O=C(c1cc2c(-c3ccc(Br)cc3)cccc2s1)N1CCOCC1 [Example 54, (4-(4-bromophenyl)benzo[b]thiophene-2-yl)(morpholino)methanone] | – | 74.3 ± 5.1 |
| 11 ± 5.7 | – | O=C(c1cc2c(-c3ccc(F)cc3)cccc2s1)N1CCOC1 [Example 46, (4-(4-fluorophenyl)benzo[b]thiophene-2-yl) (oxazolidine-3-yl)methanone] | – | 55.4 ± 12.8 |
| 62.5 ± 16.8 | – | CC(=O)Nc1ccc(-c2cccc3sc(C(=O)N4CCOCC4)cc23)cc1 [Example 10, N-(4-(2-(morpholine-4-carbonyl)benzo[b]thiophene-4-yl)phenyl)acetamide] | – | 49.0 ± 7.0 |
| 90 ± 2.8 | – | O=C(O)c1ccc(-c2cccc3sc(C(=O)N4CCOCC4)cc23)cc1 [Example 33, 4-(2-(morpholine-4-carbonyl)benzo[b]thiophene-4-yl)benzoic acid] | – | 51.5 ± 7.0 |
| 27 ± 5.7 | ≥ 50 | CN1CCN(C(=O)c2cc3c(-c4ccc(F)cc4)cccc3s2)CC1.Cl [Example 49, (4-(4-fluorophenyl)benzo[b]thiophene-2-yl)(4-methylpiperazine-1-yl)methanone hydrochloride] | – | 43.8 ± 13.7 |

— US10501473B2, “Fused heterocyclic ring compounds and method of treating retinal disease using same” (THE INDUSTRY & ACADEMIC COOPERATION IN CHUNGNAM NATIONAL …, priority 2014, dated 2019)
